Laboratory results reported in ChEMBL document CHEMBL1909511, “Inhalation by design: novel tertiary amine muscarinic M₃ receptor antagonists with slow off-rate binding kinetics for inhaled once-daily treatment of chronic obstructive pulmonary disease” (J Med Chem, 2011).

How the values were obtained:
[1] = biological target: T1, Muscarinic acetylcholine receptor M3 (Homo sapiens, UniProt P20309); assay: Displacement of [3H]-NMS from human recombinant M3 receptor expressed in CHO cells after 24 hrs by filter binding assay; assay type: cell-based
Target sequence in this assay (P20309 whole entry): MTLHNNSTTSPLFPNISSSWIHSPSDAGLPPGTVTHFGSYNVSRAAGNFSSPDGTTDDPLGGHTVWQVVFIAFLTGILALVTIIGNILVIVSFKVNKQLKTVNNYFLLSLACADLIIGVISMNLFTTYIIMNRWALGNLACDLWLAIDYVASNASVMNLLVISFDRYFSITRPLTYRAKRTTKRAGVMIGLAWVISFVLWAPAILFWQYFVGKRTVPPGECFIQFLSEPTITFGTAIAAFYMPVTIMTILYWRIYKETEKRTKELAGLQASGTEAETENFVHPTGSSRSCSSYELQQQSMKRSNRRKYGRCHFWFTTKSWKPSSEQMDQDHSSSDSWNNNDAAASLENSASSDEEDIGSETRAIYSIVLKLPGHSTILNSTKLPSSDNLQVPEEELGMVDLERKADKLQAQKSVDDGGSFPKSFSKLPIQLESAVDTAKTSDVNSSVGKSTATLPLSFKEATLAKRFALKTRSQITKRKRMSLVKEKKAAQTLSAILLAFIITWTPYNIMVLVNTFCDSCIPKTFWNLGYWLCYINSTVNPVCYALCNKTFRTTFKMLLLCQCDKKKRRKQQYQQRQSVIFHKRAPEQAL

[2] = Intrinsic clearance in human liver microsomes assessed per mg of protein in presence of NADPH
[3] = Intrinsic clearance in human hepatocytes assessed per million cells
[4] = Intrinsic clearance in human liver microsomes assessed per mg of protein by glucuronidation assay in presence of Brijj-58 and UDPGA
[5] = biological target: T2, Muscarinic acetylcholine receptor M1 (Homo sapiens, UniProt P11229); assay: Displacement of [3H]-NMS from human recombinant M1 receptor expressed in CHO cells after 24 hrs by filter binding assay; assay type: cell-based
T2 sequence (P11229 whole entry): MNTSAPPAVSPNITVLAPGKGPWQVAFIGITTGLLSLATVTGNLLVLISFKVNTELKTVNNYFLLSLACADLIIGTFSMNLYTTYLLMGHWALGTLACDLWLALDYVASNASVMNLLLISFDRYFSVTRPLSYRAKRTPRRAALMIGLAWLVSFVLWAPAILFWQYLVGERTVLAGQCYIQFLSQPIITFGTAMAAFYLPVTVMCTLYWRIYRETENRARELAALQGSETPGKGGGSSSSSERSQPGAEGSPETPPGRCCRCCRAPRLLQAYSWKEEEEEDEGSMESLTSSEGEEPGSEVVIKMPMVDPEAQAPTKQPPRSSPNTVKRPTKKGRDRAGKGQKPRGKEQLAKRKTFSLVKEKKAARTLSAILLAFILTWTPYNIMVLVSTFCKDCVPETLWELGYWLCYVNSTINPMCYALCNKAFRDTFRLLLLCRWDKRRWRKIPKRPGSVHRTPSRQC

[6] = biological target: T3, Muscarinic acetylcholine receptor M2 (Homo sapiens) (UniProt P08172); assay: Displacement of [3H]-NMS from human recombinant M2 receptor expressed in CHO cells assessed as dissociation half life at 100 fold human M2 receptor binding Ki concentration after 24 hrs by dilution-offset filter binding assay; assay type: cell-based
T3 sequence (whole entry): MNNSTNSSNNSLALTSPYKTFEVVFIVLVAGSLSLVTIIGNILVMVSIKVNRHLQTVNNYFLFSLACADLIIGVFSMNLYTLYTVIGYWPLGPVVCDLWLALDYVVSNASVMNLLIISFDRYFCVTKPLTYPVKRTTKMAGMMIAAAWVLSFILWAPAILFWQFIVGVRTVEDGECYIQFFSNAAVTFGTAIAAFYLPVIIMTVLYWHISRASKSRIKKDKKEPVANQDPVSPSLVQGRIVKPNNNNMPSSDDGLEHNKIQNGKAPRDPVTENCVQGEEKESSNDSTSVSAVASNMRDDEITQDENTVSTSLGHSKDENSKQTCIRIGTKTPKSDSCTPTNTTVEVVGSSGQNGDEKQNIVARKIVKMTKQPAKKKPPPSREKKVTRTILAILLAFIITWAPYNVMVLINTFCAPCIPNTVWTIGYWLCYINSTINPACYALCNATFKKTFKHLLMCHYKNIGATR

[7] = biological target: T4, Muscarinic acetylcholine receptor M4 (Homo sapiens, UniProt P08173); assay: Displacement of [3H]-NMS from human recombinant M4 receptor expressed in CHO cells after 24 hrs by filter binding assay; assay type: cell-based
T4 sequence (P08173 whole entry): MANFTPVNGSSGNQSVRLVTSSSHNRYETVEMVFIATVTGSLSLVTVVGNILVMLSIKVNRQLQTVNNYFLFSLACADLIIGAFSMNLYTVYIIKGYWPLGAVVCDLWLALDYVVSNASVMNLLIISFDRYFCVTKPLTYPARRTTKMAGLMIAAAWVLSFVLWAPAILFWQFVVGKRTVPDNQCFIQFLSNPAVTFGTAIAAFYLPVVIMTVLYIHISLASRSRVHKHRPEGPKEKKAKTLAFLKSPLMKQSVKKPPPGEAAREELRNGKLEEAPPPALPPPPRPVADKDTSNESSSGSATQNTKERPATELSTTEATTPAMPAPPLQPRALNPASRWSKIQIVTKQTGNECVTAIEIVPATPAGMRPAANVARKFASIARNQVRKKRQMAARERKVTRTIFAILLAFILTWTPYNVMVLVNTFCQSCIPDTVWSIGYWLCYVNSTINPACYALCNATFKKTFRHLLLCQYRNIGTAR

[8] = biological target: T5, Muscarinic acetylcholine receptor M5 (Homo sapiens, UniProt P08912); assay: Displacement of [3H]-NMS from human recombinant M5 receptor expressed in CHO cells after 24 hrs by filter binding assay; assay type: cell-based
T5 sequence (P08912 whole entry): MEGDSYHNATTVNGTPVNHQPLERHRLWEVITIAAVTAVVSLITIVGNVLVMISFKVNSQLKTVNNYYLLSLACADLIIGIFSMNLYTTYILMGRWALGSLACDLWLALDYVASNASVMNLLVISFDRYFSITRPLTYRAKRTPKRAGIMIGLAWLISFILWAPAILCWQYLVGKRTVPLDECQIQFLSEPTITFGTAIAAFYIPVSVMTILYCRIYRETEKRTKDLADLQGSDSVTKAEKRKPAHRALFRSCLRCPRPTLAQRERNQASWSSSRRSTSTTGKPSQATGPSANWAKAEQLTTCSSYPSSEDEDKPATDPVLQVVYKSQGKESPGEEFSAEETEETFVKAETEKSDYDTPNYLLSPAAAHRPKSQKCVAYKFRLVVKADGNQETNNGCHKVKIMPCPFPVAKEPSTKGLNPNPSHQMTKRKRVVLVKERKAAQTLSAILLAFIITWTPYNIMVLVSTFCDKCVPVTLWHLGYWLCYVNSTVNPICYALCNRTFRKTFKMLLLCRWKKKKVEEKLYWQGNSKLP

[9] = biological target: T6, Muscarinic acetylcholine receptor M5 (Homo sapiens) (UniProt P08912); assay: Displacement of [3H]-NMS from human recombinant M5 receptor expressed in CHO cells assessed as dissociation half life at 100 fold human M5 receptor binding Ki concentration after 24 hrs by dilution-offset filter binding assay; assay type: cell-based
T6 sequence (whole entry): T5 sequence (P08912 whole entry)

Canis familiaris [10] = assay: Bronchodilator activity in Beagle dog assessed as inhibition of methacholine-induced lung resistance after cumulative intratracheal administration in micelle solution at hourly intervals challenged each time 1 hr later with methacholine; assay type: functional, Canis lupus familiaris
Canis familiaris [11] = assay: Bronchodilator activity in methacholine challenged Beagle dog assessed as intrinsic duration of action at 3 ug intratracheally administered as single dose in micelle solution; assay type: functional, Canis lupus familiaris
MDR1 [12] = assay: Apparent permeability across apical to basal side in dog MDCK expressing MDR1; assay type: ADME, cell-based, Canis lupus familiaris
MDR1 [13] = assay: Apparent permeability across basal to apical side in dog MDCK expressing MDR1; assay type: ADME, cell-based, Canis lupus familiaris
Rattus norvegicus = assay: Unbound clearance in iv dosed rat; assay type: ADME, organism-based; settings: in vivo
[14] = Total clearance in iv dosed rat; assay type: ADME, organism-based; settings: in vivo
[15] = Plasma protein binding in iv dosed rat; assay type: ADME, organism-based; settings: read-out: PPB (converted)
[16] = biological target: T1, Muscarinic acetylcholine receptor M3; settings: CHO
Target sequence in this assay (P20309 whole entry, looked up): as the sequence (P20309 whole entry) above

[17] = biological target: T1, Muscarinic acetylcholine receptor M3
Target sequence in this assay (P20309 whole entry, looked up): as the sequence (P20309 whole entry) above
Description: Displacement of radioligand from M3 receptor assessed as dissociation half life

Ki [1]: 0.128 nM
microsomal CLint [2]: > 282 µL/min/mg
hepatocyte CLint [3]: 96 µL/min/1e6 cells
microsomal CLint [4]: 221 µL/min/mg
Ki [5]: 0.115 nM
T1/2 [6]: 4.38 h
Ki [7]: 0.115 nM
Ki [8]: 0.169 nM
T1/2 [9]: > 16.7 h
Papp A→B (MDR1 [12]): 7 ×10⁻⁶ cm/s
Papp B→A (MDR1 [13]): 64 ×10⁻⁶ cm/s
CL free (Rattus norvegicus): 2065 mL/min/kg
clearance [14]: 134 mL/min/kg
fraction unbound [15]: 0.065
T1/2 [16]: > 24 h
T1/2 [17]: 83.3 h
SMILES: CC(C)(CCC(C(N)=O)(c1ccccc1)c1ccccc1)N1CC(Oc2cccc(O)c2)C1 [PF-03635659]
ID50 (Canis familiaris [10]): 3 µg
Time (Canis familiaris [11]): >24 h
